Results on one molecule are retold here after patent US8372592B2, “High resolution label free analysis of cellular properties” (X-Body, Inc., priority 2008, dated 2013).

The assay deals with VCAM-1 and VLA-4 binding (J6 cells, which express VLA-4) (Homo sapiens, UniProt P05556+P13612). As to conditions: J6 cells + 1 mM Mn2+; EDTA added at the 110 minute mark; FIG. 4.
Chain of VCAM-1 and VLA-4 binding (J6 cells, which express VLA-4) (P13612 34-1032): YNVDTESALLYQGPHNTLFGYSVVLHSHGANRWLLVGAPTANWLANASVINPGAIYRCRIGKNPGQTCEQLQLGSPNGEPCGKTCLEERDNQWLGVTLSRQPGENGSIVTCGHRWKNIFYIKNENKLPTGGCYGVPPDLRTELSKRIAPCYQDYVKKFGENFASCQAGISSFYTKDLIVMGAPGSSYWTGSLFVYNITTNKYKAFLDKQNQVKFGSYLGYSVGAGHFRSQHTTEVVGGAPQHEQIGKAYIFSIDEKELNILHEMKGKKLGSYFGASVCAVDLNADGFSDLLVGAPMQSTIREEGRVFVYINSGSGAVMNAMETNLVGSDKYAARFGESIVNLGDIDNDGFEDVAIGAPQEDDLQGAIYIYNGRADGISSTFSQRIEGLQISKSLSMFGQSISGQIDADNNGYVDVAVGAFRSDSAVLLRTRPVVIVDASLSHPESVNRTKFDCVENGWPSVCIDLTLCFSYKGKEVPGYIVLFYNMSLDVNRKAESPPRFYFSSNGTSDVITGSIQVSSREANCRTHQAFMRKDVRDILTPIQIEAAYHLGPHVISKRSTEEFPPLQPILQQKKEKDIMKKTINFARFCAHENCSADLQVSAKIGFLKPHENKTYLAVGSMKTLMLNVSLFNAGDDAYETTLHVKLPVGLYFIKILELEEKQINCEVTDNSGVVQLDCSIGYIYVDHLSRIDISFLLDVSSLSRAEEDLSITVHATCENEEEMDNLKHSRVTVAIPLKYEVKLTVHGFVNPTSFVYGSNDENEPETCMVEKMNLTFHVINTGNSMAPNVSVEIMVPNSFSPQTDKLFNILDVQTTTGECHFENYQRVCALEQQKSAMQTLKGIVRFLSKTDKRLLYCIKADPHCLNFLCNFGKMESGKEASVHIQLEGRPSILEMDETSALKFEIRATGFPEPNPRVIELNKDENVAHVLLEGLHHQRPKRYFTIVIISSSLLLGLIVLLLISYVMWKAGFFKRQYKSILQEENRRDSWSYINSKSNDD
Chain of VCAM-1 and VLA-4 binding (J6 cells, which express VLA-4) (P05556 21-798): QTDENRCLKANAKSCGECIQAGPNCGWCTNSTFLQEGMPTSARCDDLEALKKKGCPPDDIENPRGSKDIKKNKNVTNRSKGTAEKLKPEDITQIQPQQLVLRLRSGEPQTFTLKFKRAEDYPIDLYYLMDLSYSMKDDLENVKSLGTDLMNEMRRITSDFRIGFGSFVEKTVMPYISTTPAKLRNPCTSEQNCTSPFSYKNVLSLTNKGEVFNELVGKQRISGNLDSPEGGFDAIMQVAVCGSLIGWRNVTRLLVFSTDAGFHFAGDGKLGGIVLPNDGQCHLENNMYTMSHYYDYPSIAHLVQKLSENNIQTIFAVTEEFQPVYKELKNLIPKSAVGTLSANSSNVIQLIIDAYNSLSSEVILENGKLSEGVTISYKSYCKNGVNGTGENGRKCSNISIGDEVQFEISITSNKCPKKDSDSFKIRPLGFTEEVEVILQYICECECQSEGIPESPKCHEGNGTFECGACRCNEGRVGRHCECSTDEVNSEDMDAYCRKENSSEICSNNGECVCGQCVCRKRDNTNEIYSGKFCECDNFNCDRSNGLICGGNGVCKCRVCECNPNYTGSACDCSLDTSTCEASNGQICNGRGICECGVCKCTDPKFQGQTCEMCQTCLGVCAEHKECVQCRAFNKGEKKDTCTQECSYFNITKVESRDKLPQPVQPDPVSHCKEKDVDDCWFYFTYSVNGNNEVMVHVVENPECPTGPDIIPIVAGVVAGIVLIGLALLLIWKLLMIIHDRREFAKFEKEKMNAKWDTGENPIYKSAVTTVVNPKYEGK

Procedure: VCAM-1 can be fused or bound to a ZZ-binding domain from Protein A. The ZZ-binding domain will specifically bind to IgG immobilized on the surface of the biosensor. Cells that express VLA-4 will bind to the VCAM-1 adhesion protein, which is bound to IgG immobilized to the surface of the biosensor. Therefore cells expressing an adhesion protein ligand will be immobilized to the biosensor surface.
VCAM-1, which was fused to the ZZ-binding domain of Protein A, was added to a biosensor having IgG immobilized to its surface. J6 cells, which express VLA-4, were added to the biosensor surface. […] The “J6 cells+1 mM Mn^2+” and “Buffer” lines shown in FIG. 4 both contained J6 cells and 1 mM Mn^2+. The “J6 cells and EDTA” line contained J6 cells and EDTA. At the 110 minute mark, EDTA was added to the “J6 cells+1 mM Mn^2+” cells.

In the case of `O=C(O)CN(CCN(CC(=O)O)CC(=O)O)CC(=O)O` [EDTA], the “amount of binding of cells to the VCAM-1 immobilized to the surface of the biosensor” value is given as “quickly dropped off”.
